According to patent publication US20200405657A1, “TREATMENT OF PAIN USING ALLOSTERIC MODULATOR OF TRPV1” (priority 2019, published 2020):
Entries after “also recorded” stand apart in the source; their conditions may differ.

Tests used:
Format in all cases: cell-based
HEK wild type cells = test: Calcium flux (Fluo-4) in wild-type HEK cells without the TRPV1 construct; conditions: for calcium response to individual cannabinoid: cells without TRPV1
Description: (§1) Calcium responses mediated by TRPV1 were tested by calcium assay in the cell culture system. Cells were washed and incubated with 0.2 μM fluo-4 acetoxymethyl ester (“Fluo-4”) for 30 minutes at 37° C. in a standard modified Ringer's solution of the following composition (in mM): NaCl 145, KCl 2.8, CsCl 10, CaCl2 10, MgCl2 2, glucose 10, Hepes.NaOH 10, pH 7.4, 330 mOsm. Cells were transferred to 96-well plates at 50,000 cells/well and stimulated as indicated. Calcium signals were acquired using a Flexstation 3 (Molecular Devices, Sunnydale, USA). Data was analyzed using SoftMax® Pro 5 (Molecular Devices). Where indicated, nominally calcium-free external conditions were achieved by the preparation of 0 mM CaCl2 Ringer solution containing 1 mM EGTA. Where indicated, capsaicin (10 μM) and ionomycin (500 nM) were used as positive controls to induce calcium responses. Capsazepine (10 μM) was used where indicated to specifically antagonize TRPV1-mediated calcium responses. Where indicated, baseline traces (no stimulation, NS) were subtracted. Where indicated, vehicle alone traces were subtracted. Where indicated, vehicle comprising various diluents matched to corresponding mixtures was used as a negative control.
When wild-type HEK cells without the TRPV1 construct were presented with the same stimulus conditions, calcium fluxes were not observed (FIGS. 5A-5C).

rat TRPV1 [1] = target: T1, rat TRPV1 (Rattus norvegicus, UniProt O35433); test: TRPV1-mediated calcium influx (Fluo-4) in HEK cells inducibly expressing TRPV1; conditions: for calcium flux in response to individual cannabinoid / calcium influx in response to individual terpene: HEK+TRPV1 cells; for calcium flux in response to individual cannabinoid: each cannabinoid applied alone; for calcium influx in response to individual terpene: each terpene applied alone
T1 construct: FLAG; expressed in transfected cells; host or cells: TRex HEK293 (pcDNA6TR), rat TRPV1 cDNA in pcDNA4TO, tetracycline-induced
T1 sequence (O35433 whole entry): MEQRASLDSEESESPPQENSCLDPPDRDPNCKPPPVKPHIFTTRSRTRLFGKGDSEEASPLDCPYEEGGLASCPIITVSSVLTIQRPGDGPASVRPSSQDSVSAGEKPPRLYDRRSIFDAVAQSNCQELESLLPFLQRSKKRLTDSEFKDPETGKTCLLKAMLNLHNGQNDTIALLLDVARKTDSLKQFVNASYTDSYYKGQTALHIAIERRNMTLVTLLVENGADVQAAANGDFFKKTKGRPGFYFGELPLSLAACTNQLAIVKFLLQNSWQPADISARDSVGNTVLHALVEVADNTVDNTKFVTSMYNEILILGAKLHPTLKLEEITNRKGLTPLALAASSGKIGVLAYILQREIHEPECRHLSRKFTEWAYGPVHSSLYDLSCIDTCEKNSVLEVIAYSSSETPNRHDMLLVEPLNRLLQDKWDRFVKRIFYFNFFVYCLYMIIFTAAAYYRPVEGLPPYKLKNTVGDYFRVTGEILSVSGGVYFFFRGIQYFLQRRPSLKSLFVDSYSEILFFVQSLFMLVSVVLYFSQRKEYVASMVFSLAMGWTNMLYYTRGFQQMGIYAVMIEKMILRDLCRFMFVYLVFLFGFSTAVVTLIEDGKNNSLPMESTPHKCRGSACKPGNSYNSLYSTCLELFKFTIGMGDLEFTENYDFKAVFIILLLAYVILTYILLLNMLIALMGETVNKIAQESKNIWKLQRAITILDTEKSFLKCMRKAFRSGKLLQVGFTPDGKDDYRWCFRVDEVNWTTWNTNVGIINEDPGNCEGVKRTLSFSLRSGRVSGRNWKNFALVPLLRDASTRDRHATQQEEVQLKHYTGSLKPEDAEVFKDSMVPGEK
Description: The HEK293 cell line was stably transfected with the pcDNA6TR (Invitrogen, CA) plasmid (encoding the tetracycline-sensitive TREx repressor protein), and was maintained in DMEM+10% fetal bovine serum (inactivated at 55° C. for 1 h)+2 mM glutamine in humidified 5% CO2 atmosphere at 37° C. Selection pressure on the TRex 293 cells was maintained by continuous culture in 10 μg/ml Blasticidin (Sigma, St Louis, Mo.).
For production of TRex HEK293 cells with inducible expression of TRPV1, parental cells were electroporated with the rat TRPV1 cDNA in the pcDNA4TO vector and clonal cell lines were selected by limiting dilution in the presence of 400 μg/ml zeocin (Invitrogen, CA). TRPV1 expression was induced using 1 μg/ml tetracycline for 16 h at 37° C.
as §1

TRPV1 = TRPV1 (Rattus norvegicus, UniProt O35433); test: TRPV1 desensitization over multiple sequential ligand applications (FIG. 13); conditions: Area Under the Curve analysis, calcium assays or electrophysiology
Chain of TRPV1 (O35433 whole entry): as above

rat TRPV1 [2] = target: T1, rat TRPV1; test: Whole-cell patch clamp in single HEK293 cells overexpressing rat TRPV1; conditions: for outward current: 5 μM myrcene or 1 μM capsaicin; for inward current: average of 6 independent experiments
Description: HEK293 cells were kept in sodium-based extracellular Ringer's solution containing 140 mM NaCl, 1 mM CaCl2, 2 mM MgCl2, 2.8 mM KCl, 11 mM glucose, and 10 mM HEPES-NaOH, pH 7.2 and osmolarity 300 mOsmol. The cells' cytosol was perfused with intracellular patch pipette solution containing 140 mM Cs-glutamate, 8 mM NaCl, 1 mM MgCl2, 3 mM MgATP, and 10 mM HEPES-CsOH. The standard internal Ca^2+ concentration was buffered to 180 nM with 4 mM Ca and 10 mM BAPTA. The level of free unbuffered Ca was adjusted using the calculator provided with WebMaxC (http://www.stanford.edu/˜cpatton/webmaxcS.htm). The pH of the final solution was adjusted to pH 7.2 and osmolarity measured at 300 mOsmol.
1 μM capsaicin was used as a positive control for TRPV1 activation. Rapid extracellular solution application and exchange was performed with the SmartSquirt delivery system (Auto-Mate Scientific, San Francisco). The system includes a ValveLink TTL interface between the electronic valves and the EPC-9 amplifier (HEKA, Lambrecht, Germany). This configuration allows for programmable solution changes via the PatchMaster software (HEKA, Lambrecht, Germany).
Patch-clamp experiments were performed in the whole-cell configuration at 21-25° C. Patch pipettes had resistances of 2-3 MΩ. Data was acquired with PatchMaster software controlling an EPC-9 amplifier. Voltage ramps of 50 ms spanning the voltage range from −100 to 100 mV were delivered from a holding potential of 0 mV at a rate of 0.5 Hz over a period of […]. Voltages were corrected for a liquid junction potential of 10 mV. Currents were filtered at 2.9 kHz and digitized at 100 us intervals. Capacitive currents were determined and corrected before each voltage ramp. The development of currents for a given potential was extracted from individual ramp current records by measuring the current amplitudes at voltages of −80 mV and +80 mV. Data were analyzed with FitMaster (HEKA, Lambrecht, Germany), and IgorPro (WaveMetrics, Lake Oswego, Oreg., USA). Where applicable, statistical errors of averaged data are given as mean±s.e.m.

What does the source list for `CCCCCc1cc(O)c2c(c1)OC(C)(CCC=C(C)C)C=C2` (stereo not drawn) [cannabichromene, Cannabichromene]?
calcium response to individual cannabinoid (HEK wild type cells): only minimal or absent; calcium flux in response to individual cannabinoid (rat TRPV1 [1]): most potent; also recorded: calcium flux was detected

How did the “calcium influx in response to individual terpene” value (shortened to “calcium influx in response”) (rat TRPV1 [1]) turn out when `C=CC(C)(O)CCC=C(C)CCC=C(C)C` (stereo not drawn) [Nerolidol, 3,7,11-Trimethyl-1,6,10-dodecatrien-3-ol] was run?
The value was “more modest agonist activity; also recorded: activated TRPV1-mediated Ca^2+ influx”.

And the “calcium influx in response” value (rat TRPV1 [1]; listed as nerolidol)?
The value was “significant calcium flux was detected”.

Which “calcium response to individual cannabinoid” value (HEK wild type cells) does the source give for `C=C(C)[C@@H]1CCC(C)=C[C@H]1c1c(O)cc(CCCCC)cc1O` [Cannabidiol] here?
The value was “only minimal or absent”.

What about the “calcium flux in response to individual cannabinoid” value (rat TRPV1 [1]) of the same compound?
Its value is “most potent; also recorded: calcium flux was detected”.

And the “desensitization of the channel” value (TRPV1)?
Its value is “cause desensitization”.

What about the “Imax of activated current” value (rat TRPV1 [2]; 30 μM CBD) of the same compound?
The value was “up to 5 nA”.

And the “Erev of rectifying current” value (rat TRPV1 [2]; CBD)?
The value was roughly 0 mV.

And the “sensitivity of CBD-induced current” value (rat TRPV1 [2]; capsazepine application, washout of CBD)?
The value was “sensitive to both capsazepine and washout”.

With `CC(C)=CCC[C@](C)(O)[C@@H]1CC=C(C)CC1` [Bisabolol, 6-methyl-2-(4-methylcyclohex-3-en-1-yl)hept-5-en-2-ol] as the compound, how does the “calcium influx in response” value (rat TRPV1 [1]) read?
The value was “not observed”.

What does the source list for `C=CC(=C)CCC=C(C)C` [Myrcene, 7-methyl-3-methylideneocta-1,6-diene]?
calcium influx, calcium-free medium (HEK wild type cells; wild-type HEK cells without TRPV1, myrcene 0.43-3.5 μg/ml): not observed or were only minimal; calcium flux in response to myrcene (HEK wild type cells; wild-type HEK cells, 3.5-0.43 μg/ml, compared with HEK+TRPV1): much smaller; calcium-mediated fluorescence, calcium-free medium, high concentration (rat TRPV1 [1]; 0 mM external calcium + 1 mM EGTA, 3.5 μg/ml): induced such increase; calcium-mediated fluorescence, calcium-free medium, low concentrations (rat TRPV1 [1]; 0 mM external calcium + 1 mM EGTA, 0.43, 0.875 and 1.75 μg/ml): did not cause increase; calcium response to different concentrations of myrcene (rat TRPV1 [1]; 3.5, 1.75, 0.875 and 0.43 μg/ml): dose-dependent; calcium influx in response to individual terpene (rat TRPV1 [1]): significant agonist activity; calcium influx in response to individual terpene (rat TRPV1 [1]; listed as myrcene): significant calcium flux was detected; also recorded: did not account for 100% of the calcium influx signal; desensitization of the channel (TRPV1): cause desensitization; outward current (rat TRPV1 [2]): lower amplitude than the inward current; TRPV1 channel state on activation (IV relationship) (rat TRPV1 [2]; 5 μM myrcene, 1 μM capsaicin): primarily in State 1; inward current (rat TRPV1 [2]; 5 μM myrcene, 1 mM Ca): approximately 0.5 nA; current induced (rat TRPV1 [2]; 5 μM, 10 μM and 150 μM myrcene): 0.5-2.2 nA; dose response of current in individual cells (rat TRPV1 [2]; 5, 10, 150 μM): dose-dependent response; response to second stimulus Cannabidiol after prior Myrcene saturation (rat TRPV1 [2]; Myrcene at 0 mM external Ca2+, then Cannabidiol at 1 mM external Ca2+, versus no prior Myrcene): suppressed; activator strength at TRPV1 (rat TRPV1 [2]; producing nA currents): strong activator of TRPV1

`C=CC(C)(O)CCC=C(C)C` (stereo not drawn) [Linalool, 3,7-dimethyl-1,6-octadien-3-ol] was tested. Which “calcium influx in response” value (rat TRPV1 [1]) did it give?
The value was “not observed”.

`C=C(C)[C@@H]1CCC(C)=C[C@H]1c1c(O)cc(CCC)cc1O` [cannabidivarin, Cannabidivarin] was tested. Which “calcium response to individual cannabinoid” value (HEK wild type cells) did it give?
Its value is “only minimal or absent”.

And the “calcium flux in response to individual cannabinoid” value (rat TRPV1 [1])?
Its value is “most potent; also recorded: calcium flux was detected”.

For `Oc1cc2c(cc1O)CN(C(=S)NCCc1ccc(Cl)cc1)CCC2` [capsazepine, reference compound], which “myrcene-induced calcium flux in response to TRPV1 inhibitor” value (rat TRPV1 [1]; cells activated with 3.5 μg/ml myrcene, 10 μM capsazepine) is on record?
Its value is “diminished”.

For `CCCCCc1cc(O)c(C/C=C(\C)CCC=C(C)C)c(O)c1C(=O)O` [cannabigerolic acid, Cannabigerolic Acid], which “calcium response to individual cannabinoid” value (HEK wild type cells) is on record?
Its value is “only minimal or absent”.

What about the “calcium flux in response to individual cannabinoid” value (rat TRPV1 [1]) of the same compound?
Its value is “most potent; also recorded: calcium flux was detected”.

Which results are given for `C=C(C)[C@@H]1CCC(C)=C[C@H]1c1c(O)cc(CCCCC)c(C(=O)O)c1O` [cannabidiolic acid, Cannabidiolic Acid]?
calcium response to individual cannabinoid (HEK wild type cells): only minimal or absent; calcium flux in response to individual cannabinoid (rat TRPV1 [1]): most potent; also recorded: calcium flux was detected

With `C=C/C(C)=C/CC=C(C)C` [Ocimene] as the compound, how does the “calcium influx in response” value (rat TRPV1 [1]) read?
Its value is “not observed”.

With `COc1cc(CNC(=O)CCCC/C=C/C(C)C)ccc1O` [capsaicin, reference compound] as the compound, how does the capsaicin calcium flux (HEK wild type cells; HEK wild type cells without a construct encoding TRPV1) read?
Its capsaicin calcium flux is “not detected”.

And the capsaicin-specific calcium flux (rat TRPV1 [1]; TRPV1-induced HEK cells)?
The capsaicin-specific calcium flux was “capsaicin-specific calcium fluxes”.

What about the “desensitization of the channel” value (TRPV1) of the same compound?
Its value is “can cause desensitization”.

And the current induced (rat TRPV1 [2]; 1 μM capsaicin)?
Its current induced is 4-10 nA.

And the inward current (rat TRPV1 [2]; 1 μM capsaicin after myrcene)?
The inward current was “approximately 9 nA”.

And the outward current (rat TRPV1 [2])?
Its outward current is “lower amplitude than the inward current”.

And the “TRPV1 channel state on activation (IV relationship)” value (rat TRPV1 [2]; 5 μM myrcene, 1 μM capsaicin)?
The value was “dilated state”.
